According to patent publication US10344024B2, “Compounds as ROR gamma modulators” (Glenmark Pharmaceuticals S.A., priority 2015, dated 2019):

Target: T1, GST-tagged ROR gamma ligand binding domain (LBD) (Homo sapiens, UniProt P51449)
T1 construct: purchased Invitrogen
T1 sequence (P51449 269-508 limits assumed): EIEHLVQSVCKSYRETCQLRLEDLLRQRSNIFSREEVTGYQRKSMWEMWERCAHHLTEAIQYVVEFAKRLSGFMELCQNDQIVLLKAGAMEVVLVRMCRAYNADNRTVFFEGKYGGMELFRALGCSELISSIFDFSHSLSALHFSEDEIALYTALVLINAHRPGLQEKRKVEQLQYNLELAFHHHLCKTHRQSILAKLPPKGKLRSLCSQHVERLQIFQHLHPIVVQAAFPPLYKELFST
Experiment: TR-FRET assay for ROR gamma (LanthaScreen co-activator peptide recruitment)
Format: biochemical
Settings: for inhibition at 1 µM: compound concentration 1 μM; for inhibition at 1 µM / inhibition at 10 µM: TR-FRET ratio 520/495, percent of control; for inhibition at 10 µM: compound concentration 10 μM; for IC50: from dose response curve, nonlinear regression, read-out: IC50 range
Description: The compounds described herein were screened for ROR gamma modulator activity using the TR-FRET assay (LanthaScreen™ available from Invitrogen of Carlsbad, Calif.) as described in JBC 2011, 286, 26: 22707-10; and Drug Metabolism and Disposition 2009, 37, 10: 2069-78.
Binding of the co-activator peptide, causes an increase in the TR-FRET signal while binding of an antagonist decreases the recruitment of the co-activator peptide, causing a decrease in the TR-FRET signal compared to control with no compound. The assay was performed using a two-step procedure, pre-incubation step with the compound followed by the detection step on addition of the anti-GST tagged terbium (Tb) and fluorescein tagged fluorophores as the acceptor.
Test compounds or reference compounds such as T0901317 (Calbiochem) were dissolved in dimethylsulfoxide (DMSO) to prepare 10.0 mM stock solutions and diluted to the desired concentration. The final concentration of DMSO in the reaction was 4% (v/v). The assay mixture was prepared by mixing 10 nM of the GST-tagged ROR gamma ligand binding domain (LBD) in the assay buffer containing 25 mM HEPES (pH 7.4), 100 mM NaCl, 5 mM DTT and 0.01% BSA with or without the desired concentration of the compound. The reaction was incubated at 22° C. for 1 hour. The pre-incubation step was terminated by addition of the detection mixture containing 300 nM Fluorescein-D22 co-activator peptide and 10 nM lantha screen Tb-anti GST antibody into the reaction mixture.
After shaking for 5 minutes the reaction was further incubated for 1 hour at room temperature and read at 4° C. on an Infinite F500 reader as per the kit instructions (Invitrogen). The inhibition of test compound was calculated based on the TR-FRET ratio of 520/495. The activity was calculated as a percent of control reaction. IC50 values were calculated from dose response curve by nonlinear regression analysis using GraphPad Prism software.

SMILES	inhibition at 1 µM	inhibition at 10 µM	IC50
CCC(F)(F)c1ccc(CC(=O)Nc2ccc(-c3nccnc3-c3cnn(C)c3)cc2)cc1 [Example 23, 2-(4-(1,1-Difluoropropyl)phenyl)-N-(4-(3-(1-methyl-1H-pyrazol-4-yl)pyrazin-2-y1)phenyl)acetamide]	36.6%	68.6%	
CCC(F)(F)c1ccc(CC(=O)Nc2ccc(-c3nccnc3N3CCN(C4COC4)CC3)cc2)cc1 [Example 99, 2-(4-(1,1-Difluoropropyl)phenyl)-N-(4-(3-(4-(oxetan-3-yl)piperazin-1-yl)pyrazin-2-yl)phenyl)acetamide]	79.2%	91.9%	50 to 100 nM
CCC(F)(F)c1ccc(CC(=O)Nc2ccc(-c3nccnc3-c3ccccc3Cl)cc2)cc1 [Example 5, N-(4-(3-(2-Chlorophenyl)pyrazin-2-yl)phenyl)-2-(4-(1,1-difluoropropyl)phenyl)acetamide]	81.5%	84.4%	< 50 nM
CCC(F)(F)c1ccc(CC(=O)Nc2ccc(-c3nccnc3-c3ccccc3C)cc2)cc1 [Example 31]	77.7%	81.7%	< 50 nM
CCC(F)(F)c1ccc(CC(=O)Nc2ccc(-c3nccnc3-c3ccc(Cl)cc3Cl)cc2)cc1 [Example 50, N-(4-(3-(2,4-Dichlorophenyl)pyrazin-2-yl)phenyl)-2-(4-(1,1-difluoropropyl)phenyl)acetamide]	83.2%	83%	< 50 nM
CCC(F)(F)c1ccc(CC(=O)Nc2ccc(-c3nccnc3OC(C)c3ccccc3)cc2)cc1 (stereo not shown) [Example 76, 2-(4-(1,1-Difluoropropyl)phenyl)-N-(4-(3-(1-phenylethoxy)pyrazin-2-yl)phenyl)acetamide]	78.1%	87.5%	100 to 500 nM
CCC(F)(F)c1ccc(CC(=O)Nc2ccc(-c3nccnc3OCc3ccccc3)cc2)cc1 [Example 75, N-(4-(3-(Benzyloxy)pyrazin-2-yl)phenyl)-2-(4-(1,1-difluoropropyl)phenyl)acetamide]	75.7%	84.2%	50 to 100 nM
CCC(F)(F)c1ccc(CC(=O)Nc2ccc(-c3nccnc3-c3ccc(C)cc3C)cc2)cc1 [Example 47, 2-(4-(1,1-Difluoropropyl)phenyl)-N-(4-(3-(2,4-dimethylphenyl)pyrazin-2-yl)phenyl)acetamide]	82.3%	82.3%	< 50 nM
CC(O)C(F)(F)c1ccc(CC(=O)Nc2ccc(-c3nccnc3OC3(c4ccccc4)CC3)cc2)cc1 (stereo not shown) [Example 82, 2-(4-(1,1-Difluoro-2-hydroxypropyl)phenyl)-N-(4-(3-(1-phenylcyclopropoxy)pyrazin-2-yl)phenyl)acetamide]	37.9%	80.1%	
CCC(F)(F)c1ccc(CC(=O)Nc2ccc(-c3nccnc3-c3ccccc3)cc2)cc1 [Example 15, 2-(4-(1,1-Difluoropropyl)phenyl)-N-(4-(3-phenylpyrazin-2-yl)phenyl)acetamide]	72.2%	80.6%	100 to 500 nM
CC(O)C(F)(F)c1ccc(CC(=O)Nc2ccc(-c3cnn(C(C)(C)C)c3-c3ccc(F)cc3)cc2)cc1 (stereo not shown) [Example 22, N-(4-(1-(tert-Butyl)-5-(4-fluorophenyl)-1H-pyrazol-4-yl)phenyl)-2-(4-(1,1-difluoro-2-hydroxypropyl)phenyl)acetamide]	46.7%	56.2%	
CC(O)C(F)(F)c1ccc(CC(=O)Nc2ccc(-c3nccnc3OCC3CCCCC3)cc2)cc1 (stereo not shown) [Example 93, N-(4-(3-(Cyclohexylmethoxy)pyrazin-2-yl)phenyl)-2-(4-(1,1-difluoro-2-hydroxypropyl)phenyl)acetamide]	86.6%	94.1%	100 to 500 nM
CCC(F)(F)c1ccc(CC(=O)Nc2ccc(-c3nccnc3N[C@@H](C)c3ccc(F)cc3Cl)cc2)cc1 [Example 70, (S)-N-(4-(3-((1-(2-Chloro-4-fluorophenyl)ethyl)amino)pyrazin-2-yl)phenyl)-2-(4-(1,1-difluoropropyl)phenyl)acetamide]	94.1%	93.8%	< 50 nM
CCC(F)(F)c1ccc(CC(=O)Nc2ccc(-c3nccnc3O[C@@H](C)c3ccccc3Cl)cc2)cc1 [Example 85, (S)-N-(4-(3-(1-(2-Chlorophenyl)ethoxy)pyrazin-2-yl)phenyl)-2-(4-(1,1-difluoropropyl)phenyl)acetamide]	74.8%	79.6%	100 to 500 nM
CCC(F)(F)c1ccc(CC(=O)Nc2ccc(-c3nccnc3-c3ccc(C)cc3F)cc2)cc1 [Example 48, 2-(4-(1,1-Difluoropropyl)phenyl)-N-(4-(3-(2-fluoro-4-methylphenyl)pyrazin-2-yl)phenyl)acetamide]	79.2%	84.1%	< 50 nM
CC(O)C(F)(F)c1ccc(CC(=O)Nc2ccc(-c3nccnc3-c3ccc(F)cc3)cc2)cc1 (stereo not shown) [Example 8, 2-(4-(1,1-Difluoro-2-hydroxypropyl)phenyl)-N-(4-(3-(4-fluorophenyl)pyrazin-2-yl)phenyl)acetamide]	73.6%	85.3%	100 to 500 nM
CCC(F)(F)c1ccc(CC(=O)Nc2ccc(-c3nccc(=O)n3-c3ccc(F)cc3Cl)cc2)cc1 [Example 49, N-(4-(1-(2-Chloro-4-fluorophenyl)-6-oxo-1,6-dihydropyrimidin-2-yl)phenyl)-2-(4-(1,1-difluoropropyl)phenyl)acetamide]	84%	88.8%	< 50 nM
CCC(F)(F)c1ccc(CC(=O)Nc2ccc(-c3nccnc3OCc3ccc(F)cc3Cl)cc2)cc1 [Example 77, N-(4-(3-((2-Chloro-4-fluorobenzyl)oxy)pyrazin-2-yl)phenyl)-2-(4-(1,1-difluoropropyl)phenyl)acetamide]	80.5%	73.7%	< 50 nM
CCC(F)(F)c1ccc(CC(=O)Nc2ccc(-n3nc(C)cc3-c3ccc(Cl)cc3Cl)cc2)cc1 [Example 38, N-(4-(5-(2,4-Dichlorophenyl)-3-methyl-1H-pyrazol-1-yl)phenyl)-2-(4-(1,1-difluoropropyl)phenyl)acetamide]	70.7%	74.9%	100 to 500 nM
CCC(F)(F)c1ccc(CC(=O)Nc2ccc(-c3nccnc3N3CCN(CCOC)CC3)cc2)cc1 [Example 41, 2-(4-(1,1-Difluoropropyl)phenyl)-N-(4-(3(4-(2-methoxyethyl)piperazin-1-yl)pyrazin-2-yl)phenyl)acetamide]	4.2%	48.7%	
CCC(F)(F)c1ccc(CC(=O)Nc2ccc(-c3ncccc3-c3ccc(F)cc3)cc2)cc1 [Example 14, 2-(4-(1,1-Difluoropropyl)phenyl)-N-(4-(3-(4-fluorophenyl)pyridin-2-yl)phenyl)acetamide]	74.4%	83.8%	100 to 500 nM
CCC(F)(F)c1ccc(CC(=O)Nc2ccc(-c3nccnc3-c3ccc(C)cc3)cc2)cc1 [Example 13, 2-(4-(1,1-Difluoropropyl)phenyl)-N-(4-(3-(p-tolyl)pyrazin-2-yl)phenyl)acetamide]	82.7%	84.4%	< 50 nM
CCC(F)(F)c1ccc(CC(=O)Nc2ccc(-c3ncccc3-c3ccccc3Cl)cc2)cc1 [Example 30, N-(4-(3-(2-Chlorophenyl)pyridin-2-yl)phenyl)-2-(4-(1,1-difluoropropyl)phenyl)acetamide]	81.3%	82.5%	< 50 nM
CC(O)C(F)(F)c1ccc(CC(=O)Nc2ccc(-c3nccnc3-c3ccc(F)cc3Cl)cc2)cc1 (stereo not shown) [Example 39, N-(4-(3-(2-Chloro-4-fluorophenyl)pyrazin-2-yl)phenyl)-2-(4-(1,1-difluoro-2-hydroxypropyl)phenyl)acetamide]	65.5%	72.8%	
CCC(F)(F)c1ccc(CC(=O)Nc2ccc(-c3nccnc3-c3ccc(F)cc3Cl)cc2)cc1 [Example 45, N-(4-(3-(2-Chloro-4-fluorophenyl)pyrazin-2-yl)phenyl)-2-(4-(1,1-difluoropropyl)phenyl)acetamide]	81.1%	80.8%	< 50 nM
